In ChEMBL document CHEMBL1121482, “Prevention of Ames test mutagenicity by chemical modification in a series of monoamine oxidase inhibitors” (J Med Chem, 1980):

Key:
Salmonella typhimurium [1] = experiment: Ames test averaged in revertants/plate with Salmonella Typhimurium TA1538 at 0.50 mg/plate; assay type: functional, Salmonella enterica subsp. enterica serovar Typhimurium
Salmonella typhimurium [2] = experiment: Ames test averaged in revertants/plate with Salmonella Typhimurium TA98 at 0.50 mg/plate; assay type: functional, Salmonella enterica subsp. enterica serovar Typhimurium
Salmonella typhimurium [3] = experiment: Ames test averaged in revertants/plate with Salmonella Typhimurium TA98 at 0.13 mg/plate; assay type: functional, Salmonella enterica subsp. enterica serovar Typhimurium
Salmonella typhimurium [4] = experiment: Ames test averaged in reverts/plate with Salmonella Typhimurium TA1538 at 0.13 mg/plate; assay type: functional, Salmonella enterica subsp. enterica serovar Typhimurium
Salmonella typhimurium [5] = experiment: Ames test averaged in revertants/plate with Salmonella Typhimurium TA1538 at 0.25 mg/plate; assay type: functional, Salmonella enterica subsp. enterica serovar Typhimurium
Salmonella typhimurium [6] = experiment: Ames test averaged in revertants/plate with Salmonella Typhimurium TA98 at 0.25 mg/plate; assay type: functional, Salmonella enterica subsp. enterica serovar Typhimurium
Salmonella typhimurium [7] = experiment: Ames test averaged in revertants/plate with Salmonella Typhimurium TA1538 at 1.0 mg/plate; assay type: functional, Salmonella enterica subsp. enterica serovar Typhimurium
Salmonella typhimurium [8] = experiment: Ames test averaged in revertants/plate with Salmonella Typhimurium TA98 at 1.0 mg/plate; assay type: functional, Salmonella enterica subsp. enterica serovar Typhimurium
Salmonella typhimurium [9] = experiment: Ames test averaged in revertants/plate with Salmonella Typhimurium TA1538 at 0.13 mg/plate; assay type: functional, Salmonella enterica subsp. enterica serovar Typhimurium
[10] = Partition coefficient (logP); assay type: physicochemical; details: octanol/water
Salmonella typhimurium [11] = experiment: Ames test averaged in revertants/plate with Salmonella Typhimurium TA1538 at 2.5 mg/plate; assay type: functional, Salmonella enterica subsp. enterica serovar Typhimurium
Salmonella typhimurium [12] = experiment: Ames test averaged in revertants/plate with Salmonella Typhimurium TA1538 at 5 mg/plate; assay type: functional, Salmonella enterica subsp. enterica serovar Typhimurium
Salmonella typhimurium [13] = experiment: Ames test averaged in revertants/plate with Salmonella Typhimurium TA98 at 0.1 mg/plate; assay type: functional, Salmonella enterica subsp. enterica serovar Typhimurium
Salmonella typhimurium [14] = experiment: Ames test averaged in revertants/plate with Salmonella Typhimurium TA1538 at 0.1 mg/plate; assay type: functional, Salmonella enterica subsp. enterica serovar Typhimurium
Salmonella typhimurium [15] = experiment: Ames test averaged in revertants/plate with Salmonella Typhimurium TA98 at 0.5 mg/plate; assay type: functional, Salmonella enterica subsp. enterica serovar Typhimurium
Salmonella typhimurium [16] = experiment: Ames test averaged in revertants/plate with Salmonella Typhimurium TA98 at 2.5 mg/plate; assay type: functional, Salmonella enterica subsp. enterica serovar Typhimurium
Salmonella typhimurium [17] = experiment: Ames test averaged in revertants/plate with Salmonella Typhimurium TA1538 at 0.5 mg/plate; assay type: functional, Salmonella enterica subsp. enterica serovar Typhimurium
Salmonella typhimurium [18] = experiment: Ames test averaged in revertants/plate with Salmonella Typhimurium TA98 at 5 mg/plate; assay type: functional, Salmonella enterica subsp. enterica serovar Typhimurium

With `CC(=O)Nc1ccc2c(c1)S(=O)(=O)c1ccccc1-2` the Revertants/plate (Salmonella typhimurium [1]) was 2, the Revertants/plate (Salmonella typhimurium [2]) was 2 and the Revertants/plate (Salmonella typhimurium [3]) was 0. The Revertants/plate (Salmonella typhimurium [4]) was 0, the Revertants/plate (Salmonella typhimurium [5]) was 0 and the Revertants/plate (Salmonella typhimurium [6]) was 0. For the same compound, the Revertants/plate (Salmonella typhimurium [7]) was 2 and the Revertants/plate (Salmonella typhimurium [8]) was 4.
In the case of `CCc1ccc2c(c1)C(=O)c1ccc(NC(C)=O)cc1S2(=O)=O`, the Revertants/plate (Salmonella typhimurium [1]) is reported as 1, the Revertants/plate (Salmonella typhimurium [2]) is reported as 0 and the Revertants/plate (Salmonella typhimurium [3]) is reported as 0. The Revertants/plate (Salmonella typhimurium [5]) was 0, the Revertants/plate (Salmonella typhimurium [9]) was 1 and the logP [10] was 3.44. The Revertants/plate (Salmonella typhimurium [6]) was 0, the Revertants/plate (Salmonella typhimurium [7]) was 2 and the Revertants/plate (Salmonella typhimurium [8]) was 0.
`CC(=O)Nc1ccc2c(c1)S(=O)(=O)c1ccc(C)cc1C2=O` gave a Revertants/plate (Salmonella typhimurium [1]) of 0, a Revertants/plate (Salmonella typhimurium [2]) of 0 and a Revertants/plate (Salmonella typhimurium [3]) of 1. For the same compound, the Revertants/plate (Salmonella typhimurium [5]) was 2, the Revertants/plate (Salmonella typhimurium [9]) was 0 and the logP [10] was 2.76. It also gave a Revertants/plate (Salmonella typhimurium [6]) of 0, a Revertants/plate (Salmonella typhimurium [7]) of 5 and a Revertants/plate (Salmonella typhimurium [8]) of 8.
With `CCCc1ccc2c(c1)C(=O)c1ccc(NC(C)=O)cc1S2(=O)=O` the Revertants/plate (Salmonella typhimurium [1]) was 0, the Revertants/plate (Salmonella typhimurium [2]) was 0 and the Revertants/plate (Salmonella typhimurium [3]) was 0. It also gave a Revertants/plate (Salmonella typhimurium [5]) of 0, a Revertants/plate (Salmonella typhimurium [9]) of 0 and a logP [10] of 3.51. The Revertants/plate (Salmonella typhimurium [6]) was 0, the Revertants/plate (Salmonella typhimurium [7]) was 0 and the Revertants/plate (Salmonella typhimurium [8]) was 0.
Compound `CC(=O)Nc1ccc2c(c1)S(=O)(=O)c1ccccc1C2=O` has a Revertants/plate (Salmonella typhimurium [11]) of 0, a Revertants/plate (Salmonella typhimurium [12]) of 0 and a Revertants/plate (Salmonella typhimurium [13]) of 0. For the same compound, the Revertants/plate (Salmonella typhimurium [14]) was 0, the Revertants/plate (Salmonella typhimurium [15]) was 0 and the Revertants/plate (Salmonella typhimurium [16]) was 0. It also gave a logP [10] of 2.35, a Revertants/plate (Salmonella typhimurium [17]) of 0 and a Revertants/plate (Salmonella typhimurium [18]) of 0.
Work on `CC(=O)Nc1ccc2c(c1)[nH]c1ccccc12` yielded a Revertants/plate (Salmonella typhimurium [1]) of 699, a Revertants/plate (Salmonella typhimurium [2]) of 468 and a Revertants/plate (Salmonella typhimurium [3]) of 725. For the same compound, the Revertants/plate (Salmonella typhimurium [5]) was 762, the Revertants/plate (Salmonella typhimurium [9]) was 679 and the logP [10] was 3.02. The Revertants/plate (Salmonella typhimurium [6]) was 732, the Revertants/plate (Salmonella typhimurium [7]) was 775 and the Revertants/plate (Salmonella typhimurium [8]) was 456.
